3 molecules from patent US20220072036A1, “METHOD FOR INHIBITING CORONAVIRUS AND METHOD FOR TREATING DISEASE ASSOCIATED WITH CORONAVIRUS INFECTION” (AMAZING FORTUNE CO., LTD., priority 2020, published 2022) can be followed below.

For series [1], the target named is SARS-CoV-2 papain-like protease (PLPro) (Severe acute respiratory syndrome coronavirus 2, UniProt P0DTD1). It is filed as biochemical. Conditions: SARS-CoV2 PLPro 0.9 μM, 30 min preincubation, FG6-pNA substrate, 30° C., 300 seconds; inhibitor concentrations per Table 1; mean±standard deviation.
The test system of series [2] is CC(C)C[C@H](NC(=O)[C@H](CCCNC(=N)N)NC(=O)[C@@H](N)Cc1ccccc1)C(=O)N[C@@H](CCCCN)C(=O)NCC(=O)NCC(=O)Nc1ccc([N+](=O)[O-])cc1. The series can be described thus: purified protein, by the assay type. Conditions: pH 7.4; 30.0 °C.

Take `[Mg+2]` [Comparative Group 2]: the Inhibition percentage in series [1] is 13.99 ± 0.11%.

The molecule `[Zn+2]` [Comparative Group 3] showed an Inhibition percentage in series [1] of 19.83 ± 0.88%.

Regarding “SARS-CoV-2 PLpro (Severe acute respiratory syndrome coronavirus 2)”, in series [2], the Km was found to be 2500 ± 30 µM and the kcat came to 0.85 ± 0.01 s⁻¹.
